Drawing on patent publication US20220132847A1, “CINNOLINIUM COMPOUNDS FOR USE IN A METHOD OF CONTROLLING UNWANTED PLANT GROWTH” (SYNGENTA CROP PROTECTION AG, priority 2019, published 2022), this text covers pest or weed control for ten molecules.

The structures appear in SMILES notation.

Test in all cases: Post-emergence efficacy, glasshouse
Common to all, as to assay type: in vivo

One test relates to Eleusine indica (ELEIN). As to conditions: Eleusine indica, post-emergence, 312 h, evaluated after 13 days, 100=total damage to plant, 0=no damage to plant, read-out: Control of weed species after post-emergence application, ELEIN; for pest or weed control at 1000 g/ha: Application Rate 1000 g/Ha. The method, then:
(§1) Seeds of a variety of test species were sown in standard soil in pots. After cultivation for 14 days (post-emergence) under controlled conditions in a glasshouse (at 24/16° C., day/night; 14 hours light; 65% humidity), the plants were sprayed with an aqueous spray solution derived from the dissolution of the technical active ingredient formula (I) in a small amount of acetone and a special solvent and emulsifier mixture referred to as IF50 (11.12% Emulsogen EL360™+44.44% N-methylpyrrolidone+44.44% Dowanol DPM glycol ether), to create a 50 g/l solution which was then diluted to required concentration using 0.25% or 1% Empicol ESC70 (Sodium lauryl ether sulphate)+1% ammonium sulphate in water as diluent.
(§2) The test plants were then grown in a glasshouse under controlled conditions (at 24/16° C., day/night; 14 hours light; 65% humidity) and watered twice daily. After 13 days the test was evaluated (100=total damage to plant; 0=no damage to plant).
(§3) Ipomoea hederacea (IPOHE), Euphorbia heterophylla (EPHHL), Chenopodium album (CHEAL), Amaranthus palmeri (AMAPA), Lolium perenne (LOLPE), Digitaria sanguinalis (DIGSA), Eleusine indica (ELEIN), Echinochloa crus-galli (ECHCG), Setaria faberi (SETFA)

Test [1] concerns Echinochloa crus-galli (ECHCG). The conditions noted are these: Echinochloa crus-galli, post-emergence, 312 h, evaluated after 13 days, 100=total damage to plant, 0=no damage to plant, read-out: Control of weed species after post-emergence application, ECHCG; for pest or weed control at 1000 g/ha: Application Rate 1000 g/Ha. The method, then:
as §1, §2, §3

Test [2] deals with Digitaria sanguinalis (DIGSA). As to conditions: Digitaria sanguinalis, post-emergence, 312 h, evaluated after 13 days, 100=total damage to plant, 0=no damage to plant, read-out: Control of weed species after post-emergence application, DIGSA; for pest or weed control at 1000 g/ha: Application Rate 1000 g/Ha. The method, then: as §1, §2, §3
The subject of test [3] is Euphorbia heterophylla (EPHHL). As to conditions: Euphorbia heterophylla, post-emergence, 312 h, evaluated after 13 days, 100=total damage to plant, 0=no damage to plant, read-out: Control of weed species after post-emergence application, EPHHL; for pest or weed control at 1000 g/ha: Application Rate 1000 g/Ha. The method, then:
as §1, §2, §3

Test [4] relates to Ipomoea hederacea (IPOHE). The conditions noted are these: Ipomoea hederacea, post-emergence, 312 h, evaluated after 13 days, 100=total damage to plant, 0=no damage to plant, read-out: Control of weed species after post-emergence application, IPOHE; for pest or weed control at 1000 g/ha: Application Rate 1000 g/Ha. The method, then: as §1, §2, §3
Test [5] relates to Amaranthus palmeri (AMAPA). The conditions noted are these: Amaranthus palmeri, post-emergence, 312 h, evaluated after 13 days, 100=total damage to plant, 0=no damage to plant, read-out: Control of weed species after post-emergence application, AMAPA; for pest or weed control at 1000 g/ha: Application Rate 1000 g/Ha. The method, then:
as §1, §2, §3

Test [6] concerns Chenopodium album (CHEAL). As to conditions: Chenopodium album, post-emergence, 312 h, evaluated after 13 days, 100=total damage to plant, 0=no damage to plant, read-out: Control of weed species after post-emergence application, CHEAL; for pest or weed control at 1000 g/ha: Application Rate 1000 g/Ha. The method, then: as §1, §2, §3
Another test relates to Setaria faberi (SETFA). The conditions noted are these: Setaria faberi, post-emergence, 312 h, evaluated after 13 days, 100=total damage to plant, 0=no damage to plant, read-out: Control of weed species after post-emergence application, SETFA; for pest or weed control at 1000 g/ha: Application Rate 1000 g/Ha. The method, then: as §1, §2, §3
The next test concerns Lolium perenne (LOLPE). As to conditions: Lolium perenne, post-emergence, 312 h, evaluated after 13 days, 100=total damage to plant, 0=no damage to plant, read-out: Control of weed species after post-emergence application, LOLPE; for pest or weed control at 1000 g/ha: Application Rate 1000 g/Ha. The method, then:
as §1, §2, §3

Take `CS(=O)(=O)[N-]C(=O)c1c[n+](CC(F)F)nc2ccccc12` [Compound A14, [2-(2,2-difluoroethyl)cinnolin-2-ium-4-carbonyl]-methylsulfonyl-azanide]: the pest or weed control at 1000 g/ha with Eleusine indica (ELEIN) was 30%; in test [1] it was 20%; in [2], 40%; in test [3], 40%; in [4] it was 40%; in test [5], 20%. In addition, the pest or weed control at 1000 g/ha in test [6] is 20%; in the test with Setaria faberi (SETFA), 30%; in the test with Lolium perenne (LOLPE), 0%.

Regarding `COC(=O)C[n+]1cc(C(=O)[N-]S(C)(=O)=O)c2ccccc2n1` [Compound A15, [2-(2-methoxy-2-oxo-ethyl)cinnolin-2-ium-4-carbonyl]-methylsulfonyl-azanide], the pest or weed control at 1000 g/ha in the test on Eleusine indica (ELEIN) was 0%; in [1], 20%; in [2], 0%; in [3], 30%; in [4], 10%; in [5], 50%. For the same molecule, the pest or weed control at 1000 g/ha in test [6] came out at 30%; in the test on Setaria faberi (SETFA) it was 10%; in the test with Lolium perenne (LOLPE) it was 10%.

In the case of `Cn1nnnc1[N-]C(=O)c1c[n+](C)nc2ccccc12` [Compound A16], the pest or weed control at 1000 g/ha came to 0% in the test on Eleusine indica (ELEIN); 20% in [1]; 0% in test [2]; 30% in test [3]; 40% in test [4]; 50% in test [5]. Also, the figures for the pest or weed control at 1000 g/ha (in test [6]; in the test on Setaria faberi (SETFA); in the test on Lolium perenne (LOLPE)) were 60%, 10% and 10%, respectively.

Take `C[n+]1cc(C(=O)[N-]c2nnn[nH]2)c2ccccc2n1` [Compound A17]: the pest or weed control at 1000 g/ha in the test on Eleusine indica (ELEIN) came to 20%; in test [1] it was 0%; in test [2], 10%; in test [3], 20%; in test [4], 40%; in [5] it was 50%. The pest or weed control at 1000 g/ha in test [6] was determined as 30%; in the test on Setaria faberi (SETFA), 10%; with Lolium perenne (LOLPE) it was 10%.

On to `COC(=O)CC[n+]1cc(C(=O)[N-]S(C)(=O)=O)c2ccccc2n1` [Compound A18], for which the pest or weed control at 1000 g/ha with Eleusine indica (ELEIN) came out at 20%; in test [1], 20%; in test [2], 30%; in test [3], 10%; in test [4] it was 20%; in [5] it was 10%. Besides, the pest or weed control at 1000 g/ha in test [6] came to 10%; with Setaria faberi (SETFA), 10%; with Lolium perenne (LOLPE), 0%.

On to `COC(=O)CC[n+]1cc(C(=O)[N-]S(=O)(=O)C2CC2)c2ccccc2n1` [Compound A19, cyclopropylsulfonyl-[2-(3-methoxy-3-oxo-propyl)cinnolin-2-ium-4-carbonyl]azanide], for which the pest or weed control at 500 g/ha in the test on Eleusine indica (ELEIN) (Application Rate 500 g/Ha) was found to be 50%; in [1] (Application Rate 500 g/Ha) it was 60%; in test [2] (Application Rate 500 g/Ha), 40%; in [3] (Application Rate 500 g/Ha), 40%; in [4] (Application Rate 500 g/Ha), 30%; in test [5] (Application Rate 500 g/Ha), 30%. Moreover, the pest or weed control at 500 g/ha in test [6] (Application Rate 500 g/Ha) is 60%; with Setaria faberi (SETFA) (Application Rate 500 g/Ha) it was 0%; in the test on Lolium perenne (LOLPE) (Application Rate 500 g/Ha) it was 20%.

Take `O=C(O)CC[n+]1cc(C(=O)[N-]S(=O)(=O)C2CC2)c2ccccc2n1` [Compound A20, [2-(2-carboxyethyl)cinnolin-2-ium-4-carbonyl]-cyclopropylsulfonyl-azanide]: the pest or weed control at 1000 g/ha came to 0% with Eleusine indica (ELEIN); 10% in [1]; 0% in test [2]; 20% in test [3]; 10% in test [4]; 50% in test [5]. Also, the pest or weed control at 1000 g/ha in [6] turned out to be 30%; in the test with Setaria faberi (SETFA) it was 0%; in the test on Lolium perenne (LOLPE), 0%.

As for `CS(=O)(=O)[N-]C(=O)c1c[n+](CCO)nc2ccccc12` [Compound A21], the pest or weed control at 1000 g/ha in the test with Eleusine indica (ELEIN) worked out at 80%; in test [1], 50%; in [2], 70%; in [3], 80%; in test [4], 80%; in [5] it was 90%. Also, the results for the pest or weed control at 1000 g/ha (in [6]; in the test with Setaria faberi (SETFA); in the test on Lolium perenne (LOLPE)) were 70%, 90% and 60%, respectively.

In the case of `CC[n+]1cc(C(=O)[N-]S(C)(=O)=O)c2ccccc2n1` [Compound A22, (2-ethylcinnolin-2-ium-4-carbonyl)-methylsulfonyl-azanide], the pest or weed control at 1000 g/ha came out at 70% in the test with Eleusine indica (ELEIN); 50% in test [1]; 80% in test [2]; 60% in test [3]; 90% in test [4]; 70% in test [5]. Besides, the pest or weed control at 1000 g/ha in [6] was determined as 70%; in the test on Setaria faberi (SETFA), 70%; in the test with Lolium perenne (LOLPE) it was 60%.

Take `O=C(O)C[n+]1cc(C(=O)[O-])c2ccccc2n1` [Compound A23, 2-(carboxymethyl)cinnolin-2-ium-4-carboxylate]: the pest or weed control at 1000 g/ha in the test with Eleusine indica (ELEIN) stood at 40%; in test [1] it was 30%; in test [2], 70%; in [3] it was 20%; in test [4], 20%; in test [5], 50%. For the same molecule, the pest or weed control at 1000 g/ha amounted to 50% in test [6], 30% in the test with Setaria faberi (SETFA) and 10% in the test on Lolium perenne (LOLPE).
